According to publication PMC3713097 (Chemical research in toxicology, 2013):
Where two headings read alike, the source gives them in different places.

Key:
P450 2A13 = biological target: T1, P450 2A13 (Homo sapiens, UniProt Q16696); assay: Spectral binding titration with purified P450 2A13
T1 sequence (Q16696 with tags, fused parts or gaps limits assumed): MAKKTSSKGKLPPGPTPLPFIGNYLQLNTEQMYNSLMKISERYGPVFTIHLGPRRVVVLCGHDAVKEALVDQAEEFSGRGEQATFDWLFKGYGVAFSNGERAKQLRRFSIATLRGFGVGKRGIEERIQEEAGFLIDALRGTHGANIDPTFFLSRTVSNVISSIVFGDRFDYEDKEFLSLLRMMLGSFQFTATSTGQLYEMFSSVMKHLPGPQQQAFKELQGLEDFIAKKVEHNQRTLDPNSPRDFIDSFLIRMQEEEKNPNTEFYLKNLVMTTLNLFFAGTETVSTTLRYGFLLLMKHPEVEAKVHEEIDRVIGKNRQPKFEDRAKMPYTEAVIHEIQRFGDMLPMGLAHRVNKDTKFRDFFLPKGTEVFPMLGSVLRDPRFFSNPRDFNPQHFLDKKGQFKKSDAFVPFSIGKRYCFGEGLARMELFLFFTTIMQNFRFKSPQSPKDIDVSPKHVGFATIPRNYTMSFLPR

P450 1B1 [1] = biological target: T2, P450 1B1 (Homo sapiens, UniProt Q16678, L432V); assay: Spectral binding titration with purified P450 1B1
T2 sequence (Q16678 1-543 L432V): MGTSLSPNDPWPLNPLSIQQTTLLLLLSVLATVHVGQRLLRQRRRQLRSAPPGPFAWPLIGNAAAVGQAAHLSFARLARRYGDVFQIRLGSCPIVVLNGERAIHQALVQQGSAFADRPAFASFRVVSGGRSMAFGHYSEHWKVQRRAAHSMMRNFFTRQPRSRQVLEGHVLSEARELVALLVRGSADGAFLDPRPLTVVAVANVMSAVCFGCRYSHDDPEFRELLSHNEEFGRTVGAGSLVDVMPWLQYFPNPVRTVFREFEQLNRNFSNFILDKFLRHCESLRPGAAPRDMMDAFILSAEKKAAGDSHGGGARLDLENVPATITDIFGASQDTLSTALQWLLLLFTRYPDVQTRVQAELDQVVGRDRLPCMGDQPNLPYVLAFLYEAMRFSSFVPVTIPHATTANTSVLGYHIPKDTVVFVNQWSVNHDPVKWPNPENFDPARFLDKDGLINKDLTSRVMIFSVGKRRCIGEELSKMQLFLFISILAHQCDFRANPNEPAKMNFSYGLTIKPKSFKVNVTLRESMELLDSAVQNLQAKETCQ

human P450 2A13 [2] = biological target: T3, human P450 2A13 (Homo sapiens, UniProt Q16696); details: pH 7.4
T3 sequence (Q16696 31-494 limits assumed): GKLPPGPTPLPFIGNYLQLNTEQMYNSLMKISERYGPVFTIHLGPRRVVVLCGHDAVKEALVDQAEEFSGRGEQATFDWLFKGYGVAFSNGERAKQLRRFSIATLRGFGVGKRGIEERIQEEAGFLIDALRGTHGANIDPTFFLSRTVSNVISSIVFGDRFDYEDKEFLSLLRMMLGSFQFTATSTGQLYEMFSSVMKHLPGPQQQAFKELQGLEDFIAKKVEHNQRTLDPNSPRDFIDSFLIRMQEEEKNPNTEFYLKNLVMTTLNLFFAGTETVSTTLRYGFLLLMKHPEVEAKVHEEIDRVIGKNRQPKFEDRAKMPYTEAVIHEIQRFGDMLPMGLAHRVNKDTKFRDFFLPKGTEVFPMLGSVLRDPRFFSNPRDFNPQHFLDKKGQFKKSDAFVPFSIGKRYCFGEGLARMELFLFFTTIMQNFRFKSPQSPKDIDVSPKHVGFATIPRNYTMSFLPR

P450 2A6 [3] = biological target: T4, P450 2A6 (Homo sapiens, UniProt P11509); details: pH 7.4
T4 sequence (P11509 1-494): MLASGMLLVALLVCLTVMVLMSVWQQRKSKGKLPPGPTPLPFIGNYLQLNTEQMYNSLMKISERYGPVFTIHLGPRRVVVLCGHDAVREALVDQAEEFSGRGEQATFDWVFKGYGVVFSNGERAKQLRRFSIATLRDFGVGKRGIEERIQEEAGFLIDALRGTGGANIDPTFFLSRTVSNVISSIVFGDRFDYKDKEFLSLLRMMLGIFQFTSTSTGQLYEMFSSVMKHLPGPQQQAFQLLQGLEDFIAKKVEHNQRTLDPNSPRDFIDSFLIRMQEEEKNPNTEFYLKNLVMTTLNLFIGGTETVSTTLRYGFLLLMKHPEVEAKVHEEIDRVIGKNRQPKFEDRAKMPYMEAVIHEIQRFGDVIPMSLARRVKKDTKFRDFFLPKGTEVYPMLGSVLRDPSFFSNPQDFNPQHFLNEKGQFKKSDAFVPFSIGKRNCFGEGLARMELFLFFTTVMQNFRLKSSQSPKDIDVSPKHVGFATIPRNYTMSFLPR

P450 1B1 [4] = biological target: T2, P450 1B1; details: pH 7.4
P450 2A6 [5] = biological target: T4, P450 2A6; assay: Spectral binding titration with purified P450 2A6
P450 1B1 [6] = biological target: T2, P450 1B1; details: 10 nM P450, 2.5 µM procarcinogen, means ± range of duplicate experiments
human P450 2A13 [7] = biological target: T3, human P450 2A13; details: 10 nM P450, 2.5 µM procarcinogen, means ± range of duplicate experiments

SMILES | Kd (P450 2A13) | Kd (P450 1B1 [1]) | activation of procarcinogens umu gene expression (human P450 2A13 [2]) | activation of procarcinogens umu gene expression (P450 2A6 [3]) | activation of procarcinogens umu gene expression (P450 1B1 [4]) | activation of procarcinogens umu gene expression (human P450 2A13 [2]; 2.5 µM) | activation of procarcinogens umu gene expression (P450 2A6 [3]; 2.5 µM) | activation of procarcinogens umu gene expression (P450 1B1 [4]; 2.5 µM) | further results
Cc1c2ccccc2c(C)c2c1ccc1ccccc12 [7,12-DMBA, 7,12-dimethylbenz[a]anthracene] | > 20 µM | 8.8 ± 1.3 µM | <10 units/min/nmol P450 | <10 units/min/nmol P450 | 190 ± 21 units/min/nmol P450 | – | – | – | ΔAmax (P450 1B1 [1]): 0.039 ± 0.002; ΔAmax/ Ks (P450 1B1 [1]): 0.0044
C1=Cc2cccc3cccc1c23 [acenaphthylene] | 0.61 ± 0.19 µM | > 20 µM | – | – | – | <10 units/min/nmol P450 | <10 units/min/nmol P450 | <10 units/min/nmol P450 | ΔAmax (P450 2A13): 0.050 ± 0.004; ΔAmax/ Ks (P450 2A13): 0.082; Kd (P450 2A6 [5]): 4.4 ± 0.52 µM; spectral interaction with P450 2A6 (Type I binding spectra) (P450 2A6 [5]): interacted; ΔAmax (P450 2A6 [5]): 0.076 ± 0.52; ΔAmax/ Ks (P450 2A6 [5]): 0.017
Cc1c(N)nc(C)c2c1[nH]c1ccccc12 [Trp-P-1, 3-amino-1,4-dimethyl-5H-pyrido[4,3-b]indole] | – | > 20 µM | 40 ± 9 units/min/nmol P450 | 61 ± 11 units/min/nmol P450 | 910 ± 90 units/min/nmol P450 | – | – | – | –
Cc1c2ccccc2c(C)c2c3c(ccc12)C(O)C(O)C=C3 (stereo not drawn) [7,12-DMBA-3,4-diol, 3,4-dihydroxy-3,4-dihydro-7,12-dimethylbenz[a]anthracene] | – | – | – | – | – | 280 ± 33 units/min/nmol P450 | 55 ± 13 units/min/nmol P450 | 2700 ± 110 units/min/nmol P450 | Kd (P450 2A13; human, pH 7.4): > 20 µM; Kd (P450 1B1 [1]; human, pH 7.4): > 20 µM
OC1C=Cc2c(cc3ccc4cccc5ccc2c3c45)C1O (racemic) [( ± )B[a]P-7,8-diol, 7,8-dihydroxy-7,8-dihydrobenzo[a]pyrene] | > 20 µM | 6.8 ± 1.2 µM | – | 45 ± 11 units/min/nmol P450 | – | – | – | – | ΔAmax/ Ks (P450 1B1 [1]; P450 1B1, Reverse Type I spectra): 0.0035; ΔAmax (P450 1B1 [1]; P450 1B1, Reverse Type I spectra, ± SE): 0.024 ± 0.002; activation of procarcinogens umu gene expression (P450 1B1 [6]): 2600 ± 110 units/min/nmol P450; activation of procarcinogens umu gene expression (human P450 2A13 [7]): 136 ± 22 units/min/nmol P450
Cc1cnc2ccc3c(nc(N)n3C)c2n1 [MeIQx, 2-amino-3,8-dimethylimiidazo[4,5-f]quinoxaline] | – | – | 110 ± 15 units/min/nmol P450 | 45 ± 15 units/min/nmol P450 | 87 ± 11 units/min/nmol P450 | – | – | – | –
OC1C=Cc2c(ccc3cc4ccccc4cc23)C1O (stereo not drawn) [B[a]A-trans-3,4-diol, 3,4-dihydroxy-3,4-dihydrobenz[a]anthracene] | – | – | – | – | – | <10 units/min/nmol P450 | <10 units/min/nmol P450 | <10 units/min/nmol P450 | Kd (P450 1B1 [1]; human, pH 7.4): > 20 µM
c1ccc2c(c1)-c1cccc3cccc-2c13 [fluoranthene] | 2.4 ± 1.5 µM | 1.6 ± 0.32 µM | <10 units/min/nmol P450 | <10 units/min/nmol P450 | <10 units/min/nmol P450 | – | – | – | ΔAmax (P450 2A13): 0.044 ± 0.011; ΔAmax/ Ks (P450 2A13): 0.018; Kd (P450 2A6 [5]): > 20 µM; ΔAmax (P450 1B1 [1]): 0.066 ± 0.003; ΔAmax/ Ks (P450 1B1 [1]): 0.042
